Experimental findings from patent USRE47084E1, “Oral medicinal product with modified release of at least one active principle in multimicrocapsular form” (FLAMEL IRELAND LIMITED, priority 2003, dated 2018) are described below.

The structures appear in SMILES notation. Values after ≈ are worked out from the molar mass of the structure shown.

A short description of the data set: Solubility of the active principles. The format is physicochemical.
By solubility is commonly meant the dissolved amount per volume that the medium holds. Low readings indicate a poorly soluble substance, high ones a readily soluble substance. Consider `Nc1nc2c(ncn2COCCO)c(=O)[nH]1` [Acyclovir], for which the concentration in solution (solubility) came to 10000 µg/mL (≈ 44400 µM).
For the compound `Cc1c(OCC(F)(F)F)ccnc1C[S+]([O-])c1nc2ccccc2[nH]1` (stereo not shown) [Lansoprazole], the concentration in solution (solubility) came to 50 µg/mL (≈ 135 µM).
As to `O=C1CN(/N=C/c2ccc([N+](=O)[O-])o2)C(=O)N1` [Nitrofurantoin], the solubility is 300 µg/mL (≈ 1260 µM).
The value for `CC(=O)S[C@@H]1CC2=CC(=O)CC[C@]2(C)[C@H]2CC[C@@]3(C)[C@@H](CC[C@@]34CCC(=O)O4)[C@H]12` [Spironolactone] was 20 µg/mL (≈ 48 µM).
